{"source": "patent US20240050950A1", "about": "“GRADIENT-BASED MICROFLUIDIC CIRCUIT, DEVICE, AND METHOD FOR PERFORMING AN ASSAY” (priority 2020, published 2024)", "origin": "cited, not measured here", "settings": "cited from earlier work", "key": {"[1]": {"settings": "Table 1, antimicrobial agents/drugs"}, "[2]": {"settings": "Table 3, antifungal drugs and other molecules"}}, "note": "Where two headings read alike, the source gives them in different places. Numbered stars: 1 amine (or outer) side, 2 acyl side, 3 side chain; on linkers, the order of the positions; unused ones are H or OH. Bridge positions count the residues as written; N and C are the ends. Square brackets hold non-standard residues; d marks the D form. Peptide text beside a SMILES is read from it. I, II: the chains in the order shown. Actinocin(9to1) = Cc1c2oc3c(C)ccc(C(=O)[*:1])c3nc-2c(C(=O)[*:2])c(N)c1=O; NMeV = CN[C@H](C(=O)O)C(C)C; Sar = CNCC(=O)O"}
{"compound": "4-Hydroxytamoxifen [4-Hydroxytamoxifen ((Z)-Afimoxifene)]", "values": [{"measurement": "Molar volume", "setting": "[1]", "value": "354.6 ± 3.0", "unit": "cm^3"}]}
{"compound": "OC[C@H]1NC[C@@H](O)[C@@H](O)[C@@H]1O", "note": "[1-Deoxymannojirimycin]", "values": [{"measurement": "Molar volume", "setting": "[1]", "value": "112.0 ± 3.0", "unit": "cm^3"}]}
{"compound": "c1ccc2[nH]c(-c3cscn3)nc2c1", "note": "[2-(4-Thiazolyl)benzimidazole]", "values": [{"measurement": "Molar volume", "setting": "[2]", "value": "143.0 ± 3.0", "unit": "cm^3"}]}
{"compound": "C=CCc1ccc(O)c(-c2cc(CC=C)ccc2O)c1", "note": "[5,5′-Diallyl-2,2′-biphenyldiol]", "values": [{"measurement": "Molar volume", "setting": "[2]", "value": "240.4 ± 3.0", "unit": "cm^3"}]}
{"compound": "O=[N+]([O-])C1(Br)COCOC1", "note": "[5-Bromo-5-nitro-1,3-dioxane]", "values": [{"measurement": "Molar volume", "setting": "[2]", "value": "115.3 ± 5.0", "unit": "cm^3"}]}
{"compound": "Cc1c2oc3c(C)c(N)cc(C(=O)N[C@@H]4C(=O)N[C@H](C(C)C)C(=O)N5CCC[C@H]5C(=O)N(C)CC(=O)N(C)[C@@H](C(C)C)C(=O)O[C@@H]4C)c3nc-2c(C(=O)N[C@@H]2C(=O)N[C@H](C(C)C)C(=O)N3CCC[C@H]3C(=O)N(C)CC(=O)N(C)[C@@H](C(C)C)C(=O)O[C@@H]2C)c(N)c1=O", "note": "[7-Aminoactinomycin D (7-ADD), 7-Aminoactinomycin D]", "values": [{"measurement": "Molar volume", "setting": "[1]", "value": "877.3 ± 7.0", "unit": "cm^3"}]}
{"compound": "CC(=O)OCC1=C(C(=O)O)N2C(=O)[C@@H](N)[C@H]2SC1", "note": "[7-Aminocephalosporanic acid (7-ACA), 7-Aminocephalosporanic acid]", "values": [{"measurement": "Molar volume", "setting": "[1]", "value": "170.0 ± 5.0", "unit": "cm^3"}]}
{"compound": "CC1=C(C(=O)O)N2C(=O)[C@@H](N)[C@H]2SC1", "note": "[7-Aminodesacetoxycephalosporanic acid]", "values": [{"measurement": "Molar volume", "setting": "[1]", "value": "134.0 ± 5.0", "unit": "cm^3"}]}
{"compound": "CC(=O)O[C@@]12CO[C@@H]1C[C@H](O)[C@@]1(C)C(=O)[C@H](O)C3=C(C)[C@@H](O)C[C@@](O)([C@@H](OC(=O)c4ccccc4)[C@H]21)C3(C)C", "note": "[10-Deacetylbaccatin III]", "values": [{"measurement": "Molar volume", "setting": "[1]", "value": "385.5 ± 5.0", "unit": "cm^3"}]}
{"compound": "C=CCNC1=C2C[C@@H](C)C[C@H](OC)[C@H](O)[C@@H](C)/C=C(\\C)[C@H](OC(N)=O)[C@@H](OC)/C=C\\C=C(/C)C(=O)NC(=CC1=O)C2=O", "note": "[17-(Allylamino)-17-demethoxygeldanamycin]", "values": [{"measurement": "Molar volume", "setting": "[1]", "value": "483.3 ± 5.0", "unit": "cm^3"}]}
{"compound": "CC1(C)S[C@@H]2[C@H](N)C(=O)N2[C@H]1C(=O)O", "note": "[(+)-6-Aminopenicillanic acid (6-APA), (+)-6-Aminopenicillanic acid]", "values": [{"measurement": "Molar volume", "setting": "[1]", "value": "142.0 ± 5.0", "unit": "cm^3"}]}
{"compound": "CC[C@@]1(O)C(=O)OCc2c1cc1n(c2=O)Cc2cc3ccccc3nc2-1", "note": "[(S)-(+)-Camptothecin (Camptothecin), (S)-(+)-Camptothecin]", "values": [{"measurement": "Molar volume", "setting": "[1]", "value": "230.2 ± 5.0", "unit": "cm^3"}]}
{"compound": "CC(=O)O[C@H]1CC[C@@]2(C)C(=CC[C@@H]3[C@@H]2CC[C@]2(C)C(c4cccnc4)=CC[C@@H]32)C1", "note": "[Abiraterone acetate (Zytiga), Abiraterone acetate]", "values": [{"measurement": "Molar volume", "setting": "Table 2, anticancer drugs", "value": "343.0 ± 5.0", "unit": "cm^3"}]}
{"compound": "Cc1c2oc3c(C)ccc(C(=O)N[C@@H]4C(=O)N[C@H](C(C)C)C(=O)N5CCC[C@H]5C(=O)N(C)CC(=O)N(C)[C@@H](C(C)C)C(=O)O[C@@H]4C)c3nc-2c(C(=O)N[C@@H]2C(=O)N[C@H](C(C)C)C(=O)N3CCC[C@H]3C(=O)N(C)CC(=O)N(C)[C@@H](C(C)C)C(=O)O[C@@H]2C)c(N)c1=O", "note": "[Actinomycin D] (I: T[dV]P[Sar][NMeV] / II: T[dV]P[Sar][NMeV]; ester I:1-I:C, II:1-II:C; linker I:N-II:N via Actinocin(9to1))", "values": [{"measurement": "Molar volume", "setting": "[1]", "value": "880.6 ± 7.0", "unit": "cm^3"}, {"measurement": "Molar volume", "setting": "Table 2, anticancer drugs", "value": "880.6 ± 7.0", "unit": "cm^3"}]}
{"compound": "CCCCC[C@H](CC(=O)NO)C(=O)N[C@H](C(=O)N1CCC[C@H]1CO)C(C)C", "note": "[Actinonin]", "values": [{"measurement": "Molar volume", "setting": "[1]", "value": "338.1 ± 3.0", "unit": "cm^3"}]}
{"compound": "Nc1ncnc2c1ncn2[C@@H]1O[C@H](CO)[C@@H](O)[C@@H]1O", "note": "[Adenine 9-β-D-arabinofuranoside]", "values": [{"measurement": "Molar volume", "setting": "[1]", "value": "128.1 ± 7.0", "unit": "cm^3"}]}
{"compound": "CO[C@H]1C[C@@H]2CC[C@@H](C)[C@@](O)(O2)C(=O)C(=O)N2CCCC[C@H]2C(=O)O[C@H]([C@H](C)C[C@@H]2CC[C@@H](OCCO)[C@H](OC)C2)CC(=O)[C@H](C)/C=C(\\C)[C@@H](O)[C@@H](OC)C(=O)[C@H](C)C[C@H](C)/C=C/C=C/C=C/1C", "note": "[Afinitor (Everolimus), Everolimus]", "values": [{"measurement": "Molar volume", "setting": "Table 2, anticancer drugs", "value": "811.2 ± 5.0", "unit": "cm^3"}]}
